Results from PMC6576746, “Rational discovery of dual-indication multi-target PDE/Kinase inhibitor for precision anti-cancer therapy using structural systems pharmacology” (PLoS Computational Biology, 2019).

What was measured:
Experiment in all cases: biochemical
Design in all cases: DiscoverX KinomeScan competition binding assay across human kinases; per cent of control at 10 and 100 uM
TIE2 = molecular target: T1, TIE2 (Homo sapiens, UniProt Q02763); conditions: competition binding, % of control; read-out: Percent Control (100 uM Levosimendan)
T1 construct: gene TEK
Procedure, shortened: (§1)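 KinomeScan competition binding was run across a human kinase panel at 10 μM and 100 μM levosimendan. Results are %control = (test − positive control)/(negative control − positive control) × 100.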

MST2 = molecular target: T2, MST2 (Homo sapiens, UniProt Q13188); conditions: competition binding, % of control; read-out: Percent Control (100 uM Levosimendan)
T2 construct: gene STK3
Procedure, shortened: as §1

ULK2 = ULK2 (Homo sapiens, UniProt Q8IYT8); conditions: competition binding, % of control; read-out: Percent Control (100 uM Levosimendan)
Procedure, shortened: as §1

NLK = NLK (Homo sapiens, UniProt Q9UBE8); conditions: competition binding, % of control; read-out: Percent Control (100 uM Levosimendan)
Procedure, shortened: as §1

MKNK1 = MKNK1 (Homo sapiens, UniProt Q9BUB5); conditions: competition binding, % of control; read-out: Percent Control (100 uM Levosimendan)
Procedure, shortened: as §1

EGFR(E746-A750del) = EGFR(E746-A750del) (Homo sapiens, UniProt P00533, DEL746-750); conditions: competition binding, % of control; read-out: Percent Control (100 uM Levosimendan)
Procedure, shortened: as §1

DAPK1 = DAPK1 (Homo sapiens, UniProt P53355); conditions: competition binding, % of control; read-out: Percent Control (100 uM Levosimendan)
Procedure, shortened: as §1

[1] = molecular target: T3, ABL1(E255K)-phosphorylated (Homo sapiens, UniProt P00519, E255K); conditions: competition binding, % of control
T3 construct: phosphorylated
Procedure, shortened: as §1

EGFR(G719C) = EGFR(G719C) (Homo sapiens, UniProt P00533, G719C); conditions: competition binding, % of control
Procedure, shortened: as §1

JNK3 = molecular target: T4, JNK3 (Homo sapiens, UniProt P53779); conditions: competition binding, % of control; read-out: Percent Control (100 uM Levosimendan)
T4 construct: gene MAPK10
Procedure, shortened: as §1

[2] = molecular target: T5, ABL1(F317I)-phosphorylated (Homo sapiens, UniProt P00519, F317I); conditions: competition binding, % of control; read-out: Percent Control (100 uM Levosimendan)
T5 construct: phosphorylated
Procedure, shortened: as §1

TRKC = molecular target: T6, TRKC (Homo sapiens, UniProt Q16288); conditions: competition binding, % of control; read-out: Percent Control (100 uM Levosimendan)
T6 construct: gene NTRK3
Procedure, shortened: as §1

RET(V804L) = RET(V804L) (Homo sapiens, UniProt P07949, V804L); conditions: competition binding, % of control; read-out: Percent Control (100 uM Levosimendan)
Procedure, shortened: as §1

MET(Y1235D) = MET(Y1235D) (Homo sapiens, UniProt P08581, Y1235D); conditions: competition binding, % of control; read-out: Percent Control (100 uM Levosimendan)
Procedure, shortened: as §1

ERBB4 = ERBB4 (Homo sapiens, UniProt Q15303); conditions: competition binding, % of control; read-out: Percent Control (100 uM Levosimendan)
Procedure, shortened: as §1

ASK2 = molecular target: T7, ASK2 (Homo sapiens, UniProt O95382); conditions: competition binding, % of control; read-out: Percent Control (100 uM Levosimendan)
T7 construct: gene MAP3K6
Procedure, shortened: as §1

CDK4 = CDK4 (Homo sapiens, UniProt P11802); conditions: competition binding, % of control; read-out: Percent Control (100 uM Levosimendan)
Procedure, shortened: as §1

TBK1 = TBK1 (Homo sapiens, UniProt Q9UHD2); conditions: competition binding, % of control
Procedure, shortened: as §1

[3] = read-out: Percent Control (10 uM Levosimendan)
[4] = read-out: Percent Control (100 uM Levosimendan)

Sequence of EGFR(G719C) (P00533 whole entry G719C): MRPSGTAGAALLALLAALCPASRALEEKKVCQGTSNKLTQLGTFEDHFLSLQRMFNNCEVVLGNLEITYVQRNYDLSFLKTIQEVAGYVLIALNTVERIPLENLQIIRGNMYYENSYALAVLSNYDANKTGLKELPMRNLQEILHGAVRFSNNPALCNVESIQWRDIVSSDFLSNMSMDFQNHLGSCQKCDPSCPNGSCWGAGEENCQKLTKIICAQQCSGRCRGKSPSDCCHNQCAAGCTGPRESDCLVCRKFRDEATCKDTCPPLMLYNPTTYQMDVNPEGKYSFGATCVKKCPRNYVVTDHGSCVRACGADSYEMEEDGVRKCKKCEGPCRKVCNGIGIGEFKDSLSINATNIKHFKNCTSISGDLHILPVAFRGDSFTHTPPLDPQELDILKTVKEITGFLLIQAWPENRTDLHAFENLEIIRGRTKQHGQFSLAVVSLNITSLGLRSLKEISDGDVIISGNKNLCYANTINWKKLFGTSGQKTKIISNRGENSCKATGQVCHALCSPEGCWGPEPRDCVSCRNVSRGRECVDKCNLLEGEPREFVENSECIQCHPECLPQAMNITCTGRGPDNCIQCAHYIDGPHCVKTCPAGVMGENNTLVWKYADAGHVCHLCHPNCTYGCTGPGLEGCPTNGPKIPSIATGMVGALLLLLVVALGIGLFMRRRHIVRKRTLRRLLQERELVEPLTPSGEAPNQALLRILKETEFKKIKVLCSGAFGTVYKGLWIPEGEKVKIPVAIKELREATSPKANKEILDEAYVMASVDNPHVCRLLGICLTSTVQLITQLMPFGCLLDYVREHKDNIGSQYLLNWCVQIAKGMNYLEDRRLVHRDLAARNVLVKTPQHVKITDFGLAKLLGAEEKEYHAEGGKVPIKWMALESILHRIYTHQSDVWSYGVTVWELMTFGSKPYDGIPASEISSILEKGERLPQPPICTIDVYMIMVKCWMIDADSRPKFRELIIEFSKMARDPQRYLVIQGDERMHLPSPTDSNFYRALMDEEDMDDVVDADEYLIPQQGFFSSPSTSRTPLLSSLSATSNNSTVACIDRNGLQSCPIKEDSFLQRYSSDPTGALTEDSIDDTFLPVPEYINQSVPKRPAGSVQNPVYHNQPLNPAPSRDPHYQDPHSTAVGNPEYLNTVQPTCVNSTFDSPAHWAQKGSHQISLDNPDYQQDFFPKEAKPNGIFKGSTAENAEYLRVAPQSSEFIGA
T3 sequence (P00519 whole entry E255K): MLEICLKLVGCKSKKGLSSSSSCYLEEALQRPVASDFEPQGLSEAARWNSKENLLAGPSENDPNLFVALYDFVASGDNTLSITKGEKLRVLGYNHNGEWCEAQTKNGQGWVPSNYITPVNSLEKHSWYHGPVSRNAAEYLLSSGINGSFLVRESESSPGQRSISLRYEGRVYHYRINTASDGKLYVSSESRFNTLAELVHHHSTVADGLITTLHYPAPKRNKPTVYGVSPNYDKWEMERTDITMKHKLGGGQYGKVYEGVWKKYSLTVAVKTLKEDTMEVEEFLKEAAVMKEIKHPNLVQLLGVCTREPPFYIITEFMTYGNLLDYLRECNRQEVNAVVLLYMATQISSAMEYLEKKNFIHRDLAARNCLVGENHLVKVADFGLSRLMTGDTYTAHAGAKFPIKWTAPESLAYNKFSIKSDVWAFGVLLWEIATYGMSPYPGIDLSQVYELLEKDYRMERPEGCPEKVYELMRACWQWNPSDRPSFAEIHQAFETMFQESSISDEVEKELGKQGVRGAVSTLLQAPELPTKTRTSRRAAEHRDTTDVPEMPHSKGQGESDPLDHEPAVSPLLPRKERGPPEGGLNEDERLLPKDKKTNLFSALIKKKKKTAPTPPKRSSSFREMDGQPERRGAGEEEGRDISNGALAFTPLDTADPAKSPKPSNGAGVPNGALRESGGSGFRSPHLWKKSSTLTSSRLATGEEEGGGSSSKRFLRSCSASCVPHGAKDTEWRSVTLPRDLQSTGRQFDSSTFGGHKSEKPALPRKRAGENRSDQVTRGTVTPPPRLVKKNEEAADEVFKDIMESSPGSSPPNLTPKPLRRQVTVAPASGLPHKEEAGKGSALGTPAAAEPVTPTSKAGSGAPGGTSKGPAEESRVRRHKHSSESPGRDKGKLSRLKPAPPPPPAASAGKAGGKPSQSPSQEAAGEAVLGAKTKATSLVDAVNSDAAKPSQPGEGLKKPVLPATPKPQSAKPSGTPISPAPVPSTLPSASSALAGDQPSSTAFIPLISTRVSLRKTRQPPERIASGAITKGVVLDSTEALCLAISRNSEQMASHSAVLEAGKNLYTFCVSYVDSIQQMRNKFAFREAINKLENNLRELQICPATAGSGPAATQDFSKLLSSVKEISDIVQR
Sequence of TBK1 (Q9UHD2 whole entry): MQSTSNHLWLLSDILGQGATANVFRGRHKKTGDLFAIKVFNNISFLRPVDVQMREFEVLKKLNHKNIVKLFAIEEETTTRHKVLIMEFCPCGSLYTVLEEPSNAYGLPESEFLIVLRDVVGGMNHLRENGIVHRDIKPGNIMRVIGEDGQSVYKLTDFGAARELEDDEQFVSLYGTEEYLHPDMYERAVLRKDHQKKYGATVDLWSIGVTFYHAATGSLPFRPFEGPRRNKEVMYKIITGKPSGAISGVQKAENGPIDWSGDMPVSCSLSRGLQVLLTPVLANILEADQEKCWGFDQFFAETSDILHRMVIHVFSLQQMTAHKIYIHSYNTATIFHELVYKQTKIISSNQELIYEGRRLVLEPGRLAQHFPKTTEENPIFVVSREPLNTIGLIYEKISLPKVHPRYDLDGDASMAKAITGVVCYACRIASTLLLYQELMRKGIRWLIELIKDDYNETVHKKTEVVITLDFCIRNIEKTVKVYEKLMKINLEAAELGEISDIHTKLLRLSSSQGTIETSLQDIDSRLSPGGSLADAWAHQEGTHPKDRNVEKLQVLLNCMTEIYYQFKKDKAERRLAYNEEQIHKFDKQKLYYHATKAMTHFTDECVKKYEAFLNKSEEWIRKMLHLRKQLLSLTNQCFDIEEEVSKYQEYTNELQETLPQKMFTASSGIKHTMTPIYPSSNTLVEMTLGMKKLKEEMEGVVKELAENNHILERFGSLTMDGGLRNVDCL
Sequence of EGFR(E746-A750del) (P00533 with tags, fused parts or gaps DEL746-750): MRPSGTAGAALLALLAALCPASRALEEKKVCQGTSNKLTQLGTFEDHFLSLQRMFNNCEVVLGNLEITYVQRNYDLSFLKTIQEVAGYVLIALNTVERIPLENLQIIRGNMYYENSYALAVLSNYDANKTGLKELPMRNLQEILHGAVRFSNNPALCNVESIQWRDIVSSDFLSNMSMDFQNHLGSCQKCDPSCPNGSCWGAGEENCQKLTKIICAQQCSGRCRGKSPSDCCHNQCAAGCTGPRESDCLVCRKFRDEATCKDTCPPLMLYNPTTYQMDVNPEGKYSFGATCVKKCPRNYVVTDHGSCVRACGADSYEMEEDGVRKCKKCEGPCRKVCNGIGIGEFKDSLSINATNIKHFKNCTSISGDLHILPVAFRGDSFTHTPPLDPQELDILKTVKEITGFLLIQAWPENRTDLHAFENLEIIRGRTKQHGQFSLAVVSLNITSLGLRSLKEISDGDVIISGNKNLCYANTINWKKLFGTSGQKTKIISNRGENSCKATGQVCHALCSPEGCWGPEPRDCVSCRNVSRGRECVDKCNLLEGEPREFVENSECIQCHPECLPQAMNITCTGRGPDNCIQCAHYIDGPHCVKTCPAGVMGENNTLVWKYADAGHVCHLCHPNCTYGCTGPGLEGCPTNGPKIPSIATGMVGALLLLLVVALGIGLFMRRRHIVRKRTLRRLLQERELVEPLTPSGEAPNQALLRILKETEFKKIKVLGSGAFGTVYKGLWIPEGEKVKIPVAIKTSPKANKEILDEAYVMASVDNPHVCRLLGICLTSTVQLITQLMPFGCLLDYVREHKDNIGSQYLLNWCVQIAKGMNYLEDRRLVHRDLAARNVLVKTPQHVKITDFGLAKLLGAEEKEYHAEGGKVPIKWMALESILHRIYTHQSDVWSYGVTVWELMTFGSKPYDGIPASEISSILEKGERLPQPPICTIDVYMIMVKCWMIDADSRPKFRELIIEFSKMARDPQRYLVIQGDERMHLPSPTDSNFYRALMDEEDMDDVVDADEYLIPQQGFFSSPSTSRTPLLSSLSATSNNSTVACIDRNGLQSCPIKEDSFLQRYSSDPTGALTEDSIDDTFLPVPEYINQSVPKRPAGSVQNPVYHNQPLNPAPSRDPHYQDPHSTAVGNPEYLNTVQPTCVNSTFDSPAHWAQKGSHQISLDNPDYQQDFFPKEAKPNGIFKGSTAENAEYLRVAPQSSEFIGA
T5 sequence (P00519 whole entry F317I): as the sequence (P00519 whole entry E255K) above, with K255E, F317I counted along it
T2 sequence (Q13188 whole entry): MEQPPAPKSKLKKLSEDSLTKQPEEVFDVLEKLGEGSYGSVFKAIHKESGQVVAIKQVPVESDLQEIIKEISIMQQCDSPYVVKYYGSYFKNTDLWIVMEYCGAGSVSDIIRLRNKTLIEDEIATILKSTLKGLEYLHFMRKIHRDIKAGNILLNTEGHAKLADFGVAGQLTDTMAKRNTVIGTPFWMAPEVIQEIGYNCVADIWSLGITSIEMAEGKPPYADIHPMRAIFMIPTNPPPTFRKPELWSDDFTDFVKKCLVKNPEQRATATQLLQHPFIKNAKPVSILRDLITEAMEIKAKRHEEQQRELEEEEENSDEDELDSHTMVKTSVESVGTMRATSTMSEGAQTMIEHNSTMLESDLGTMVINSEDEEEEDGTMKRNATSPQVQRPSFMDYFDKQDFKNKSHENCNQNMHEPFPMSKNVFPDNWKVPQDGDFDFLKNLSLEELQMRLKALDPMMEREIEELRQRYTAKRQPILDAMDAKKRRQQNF

remaining binding at 100 µM (TIE2): 78%
remaining binding at 100 µM (MST2): 100%
remaining binding at 100 µM (ULK2): 56%
remaining binding at 100 µM (NLK): 100%
remaining binding at 100 µM (MKNK1): 65%
remaining binding at 100 µM (EGFR(E746-A750del)): 63%
remaining binding at 100 µM (DAPK1): 88%
remaining binding at 10 µM [1, 3]: 97%
remaining binding at 100 µM [1, 4]: 34%
remaining binding at 10 µM (EGFR(G719C); [3]): 49%
remaining binding at 100 µM (EGFR(G719C); [4]): 10%
remaining binding at 100 µM (JNK3): 99%
remaining binding at 100 µM [2]: 100%
remaining binding at 100 µM (TRKC): 65%
remaining binding at 100 µM (RET(V804L)): 92%
remaining binding at 100 µM (MET(Y1235D)): 57%
remaining binding at 100 µM (ERBB4): 63%
remaining binding at 100 µM (ASK2): 80%
remaining binding at 100 µM (CDK4): 100%
remaining binding at 10 µM (TBK1; [3]): 94%
remaining binding at 100 µM (TBK1; [4]): 38%
SMILES: C[C@@H]1CC(=O)NN=C1c1ccc(NN=C(C#N)C#N)cc1 [levosimendan]
